Assay results as given in article PMC3265452 (PLoS Neglected Tropical Diseases, 2012).
Where a name gives a salt, the structure may show the parent alone.

What follows are molecules tested against AaDOP2 (Aedes aegypti, UniProt H6D5H2) (assay: AaDOP2 antagonist screen of the LOPAC1280 library (HEK-CRELuc-Aadop2 cells, luminescence)). Conditions: not given.
Type: cell-based

AaDOP2, sequence (H6D5H2 1-476): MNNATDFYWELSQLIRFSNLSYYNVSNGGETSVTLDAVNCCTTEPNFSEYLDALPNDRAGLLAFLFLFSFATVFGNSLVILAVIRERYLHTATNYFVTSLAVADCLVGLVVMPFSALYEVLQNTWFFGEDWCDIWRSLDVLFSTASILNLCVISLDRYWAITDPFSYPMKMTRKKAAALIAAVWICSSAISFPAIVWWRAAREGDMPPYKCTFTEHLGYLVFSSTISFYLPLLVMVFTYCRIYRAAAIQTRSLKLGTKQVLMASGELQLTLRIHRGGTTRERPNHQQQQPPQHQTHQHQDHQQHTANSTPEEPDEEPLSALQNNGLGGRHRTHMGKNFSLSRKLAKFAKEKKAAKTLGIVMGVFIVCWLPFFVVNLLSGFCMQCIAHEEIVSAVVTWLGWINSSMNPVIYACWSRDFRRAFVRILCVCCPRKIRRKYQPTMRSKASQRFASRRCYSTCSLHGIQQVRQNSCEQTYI

Row | SMILES | Compound effect (percent receptor signaling in presence of test compound, relative lux units relative to the SCH23390 control)
1 | CNC(=O)c1cc2c(cn1)[nH]c1ccccc12 [Compound 502, N-Methyl-beta-carboline-3-carboxamide] | 80
2 | CCc1c(C(=O)OC)ncc2[nH]c3cc(OC)c(OC)cc3c12 [Compound 503, Methyl 6,7-dimethoxy-4-ethyl-beta-carboline-3-carboxylate] | 79
3 | CC(C)[C@@]1(NC(=O)[C@@H]2C=C3c4cccc5[nH]cc(c45)C[C@H]3N(C)C2)O[C@@]2(O)[C@@H]3CCCN3C(=O)[C@H](Cc3ccccc3)N2C1=O [Compound 508, Ergocristine] | 100
4 | NC(=O)OCC(COC(N)=O)c1ccccc1 [Compound 509, Felbamate] | 113
5 | CC(Cc1ccc(O)cc1)NCC(O)c1cc(O)cc(O)c1 (centres unmarked) [Compound 511, Fenoterol hydrobromide] | 136
6 | CNCC[C@H](Oc1ccc(C(F)(F)F)cc1)c1ccccc1.Cl [Compound 512, S-(+)-Fluoxetine hydrochloride] | 77
7 | CNCC[C@@H](Oc1ccc(C(F)(F)F)cc1)c1ccccc1.Cl [Compound 513, R-(-)-Fluoxetine hydrochloride] | 79
8 | COCCCC/C(=N\OCCN)c1ccc(C(F)(F)F)cc1 [Compound 514, Fluvoxamine maleate] | 114
9 | COc1ccc2c(c1)c(CC(=O)O)c(C)n2Cc1ccc(F)cc1 [Compound 515, 1-(4-Fluorobenzyl)-5-methoxy-2-methylindole-3-acetic acid] | 103
10 | COc1cccc2c1[C@@H]1CN(CCCCn3c(=O)[nH]c4c(sc5ncc(-c6ccccc6)nc54)c3=O)C[C@@H]1CO2 [Compound 517, Fiduxosin hydrochloride] | 69
11 | NS(=O)(=O)c1cc(C(=O)O)c(NCc2ccco2)cc1Cl [Compound 518, Furosemide] | 129
12 | CC(C)OC(=O)C(C)(C)Oc1ccc(C(=O)c2ccc(Cl)cc2)cc1 [Compound 521, Fenofibrate] | 95
13 | O=C1NCC2(CCN(CCc3ccccc3)CC2)O1 [Compound 522, Fenspiride hydrochloride] | 98
14 | CCOC(=O)c1ncn2c1CN(C)C(=O)c1cc(F)ccc1-2 [Compound 523, Flumazenil] | 124
15 | CCCCc1ccc(C(=O)O)nc1 [Compound 525, Fusaric acid] | 152
16 | O=c1[nH]cc(F)c(=O)[nH]1 [Compound 526, 5-Fluorouracil] | 156
17 | O=C(NCC1CCCCN1)c1cc(OCC(F)(F)F)ccc1OCC(F)(F)F (centres unmarked) [Compound 527, Flecainide acetate] | 111
18 | Oc1ccc(C2CNCCc3c2cc(O)c(O)c3Cl)cc1 (centres unmarked) [Compound 528, Fenoldopam bromide] | 112
19 | C=C[C@@]1(C)CC(=O)[C@]2(O)[C@@]3(C)[C@@H](O)CCC(C)(C)[C@@H]3[C@H](O)[C@H](OC(C)=O)[C@@]2(C)O1 [Compound 529, Forskolin] | 46
20 | NC(N)=Nc1nc(CSCCC(N)=NS(N)(=O)=O)cs1 [Compound 530, Famotidine] | 115

Row | SMILES | Compound effect (percent receptor signaling in presence of test compound, relative lux units relative to the SCH23390 control)
21 | Fc1ccc(C(c2ccc(F)cc2)N2CCN(C/C=C/c3ccccc3)CC2)cc1 [Compound 533, Flunarizine dihydrochloride] | 71
22 | C[C@H]1O[C@@H](n2cc(F)c(=O)[nH]c2=O)[C@H](O)[C@@H]1O [Compound 534, 5-fluoro-5'-deoxyuridine] | 111
23 | CC(C)C(=O)Nc1ccc([N+](=O)[O-])c(C(F)(F)F)c1 [Compound 536, Flutamide] | 99
24 | CC(C)(C(=O)O)c1ccc(C(O)CCCN2CCC(C(O)(c3ccccc3)c3ccccc3)CC2)cc1 (centres unmarked) [Compound 537, Fexofenadine hydrochloride] | 87
25 | CCOC(=O)C1=C(C)NC(C)=C(C(=O)OC)C1c1cccc(Cl)c1Cl (centres unmarked) [Compound 539, Felodipine] | 96
26 | O=C1NCN(c2ccccc2)C12CCN(CCCC(c1ccc(F)cc1)c1ccc(F)cc1)CC2 [Compound 540, Fluspirilene] | 53
27 | Cc1nc2c([nH]1)c(=O)n(C)c(=O)n2Cc1ccco1 [Compound 542, Furafylline] | 120
28 | COC(=O)c1c(C)[nH]c(C)c1C(=O)c1ccccc1Cc1ccccc1 [Compound 543, FPL 64176] | 86
29 | CNCCC(Oc1ccc(C(F)(F)F)cc1)c1ccccc1 (centres unmarked) [Compound 544, Fluoxetine hydrochloride] | 118
30 | NCC(=O)NCCC(c1ccccc1)c1ccccc1 [Compound 545, N-(3,3-Diphenylpropyl)glycinamide] | 105
31 | COc1ccc(Cl)cc1C(=O)NCCc1ccc(S(=O)(=O)NC(=O)NC2CCCCC2)cc1 [Compound 546, Glibenclamide] | 118
32 | CN(C)c1cc2c(Nc3ccc4c(cnn4Cc4ccccc4)c3)ncnc2cn1 [Compound 547, GW2974] | 68
33 | N=C(N)NC(=O)Cc1c(Cl)cccc1Cl [Compound 548, Guanfacine hydrochloride] | 112
34 | Nc1nc(O)c2ncn(COC(CO)CO)c2n1 [Compound 550, Ganciclovir] | 92
35 | NC(=O)CC[C@H](N)C(=O)O [Compound 551, L-Glutamine] | 115
36 | NC(N)=Nc1ccc2[nH]c3c(c2c1)C[C@@]1(O)[C@H]2Cc4ccc(O)c5c4[C@@]1(CCN2CC1CC1)[C@H]3O5.O=C(O)C(F)(F)F.O=C(O)C(F)(F)F [Compound 552, Guanidinyl-naltrindole di-trifluoroacetate] | 120
37 | CN(CCOc1ccc(C[C@H](Nc2ccccc2C(=O)c2ccccc2)C(=O)O)cc1)c1ccccn1 [Compound 554, GW1929] | 131
38 | O=C1Nc2ccc(I)cc2/C1=C/c1cc(Br)c(O)c(Br)c1 [Compound 555, GW5074] | 25
39 | O=c1c(-c2ccc(O)cc2)coc2cc(O)cc(O)c12 [Compound 556, Genistein] | 67

Same assay, conditions: 10 µM compound, 300 nM dopamine, 2 hr; hit = compound effect <20

Row | SMILES | Compound effect (percent receptor signaling in presence of test compound, relative lux units relative to the SCH23390 control) [%]
40 | CCc1cc(Cl)c(OC)c(C(=O)NC[C@@H]2CCCN2CC)c1O.Cl [Compound 505, S-(-)-Eticlopride hydrochloride] | 85
41 | OC[C@H]1O[C@@H](n2cnc3c(N[C@H]4CC5CCC4C5)ncnc32)[C@H](O)[C@@H]1O (stereo partly drawn) [Compound 506, (S)-ENBA] | 112
42 | CCCCCCC(C(C)O)n1cnc2c(N)ncnc21.Cl (stereo not drawn) [Compound 507, erythro-9-(2-Hydroxy-3-nonyl)adenine hydrochloride] | 128
43 | CC(=O)O[C@H]1C[C@@]2(C)[C@@H](C[C@@H](O)[C@H]3[C@@]4(C)CC[C@@H](O)[C@@H](C)[C@@H]4CC[C@@]32C)/C1=C(\CCC=C(C)C)C(=O)[O-].[Na+] [Compound 510, Fusidic acid sodium] | 131
44 | O=C([O-])c1cc2cc(Cc3cccnc3)ccc2o1.[Na+] [Compound 516, Furegrelate sodium] | 146
45 | N[C@@H](Cc1ccc(F)cc1)C(=O)O [Compound 519, p-Fluoro-L-phenylalanine] | 97
46 | COc1cc(=O)n(C)c2c(OCC(O)C(C)(C)O)cccc12 (centres unmarked) [Compound 524, Foliosidine] | 190
47 | CCCn1c(=O)c2[nH]c(C3CCCC3)nc2n(CCCOC(=O)c2ccc(S(=O)(=O)F)cc2)c1=O [Compound 531, FSCPX] | 97
48 | CC(C)=CCC/C(C)=C/CC/C(C)=C/CSc1ccccc1C(=O)O [Compound 532, Farnesylthiosalicylic acid] | 120
49 | Cl.N[C@@H](CCC(=O)O)C(=O)O [Compound 549, L-Glutamic acid hydrochloride] | 93
50 | Br.Br.N=C(N)NCCSSCCNC(=N)N [Compound 553, Guanidinoethyl disulfide dihydrobromide] | 105
